Results on ten compounds are retold here after patent US11447466B2, “Substituted indole compounds useful as inhibitors of TLR7/8/9” (BRISTOL-MYERS SQUIBB COMPANY, priority 2017, dated 2022).

Holding throughout (type): cell-based
The target in one assay is T1, human TLR7 (Homo sapiens, UniProt Q9NYK1).
T1 construct: host or cells: HEK-Blue cells
T1 sequence (Q9NYK1 27-1049): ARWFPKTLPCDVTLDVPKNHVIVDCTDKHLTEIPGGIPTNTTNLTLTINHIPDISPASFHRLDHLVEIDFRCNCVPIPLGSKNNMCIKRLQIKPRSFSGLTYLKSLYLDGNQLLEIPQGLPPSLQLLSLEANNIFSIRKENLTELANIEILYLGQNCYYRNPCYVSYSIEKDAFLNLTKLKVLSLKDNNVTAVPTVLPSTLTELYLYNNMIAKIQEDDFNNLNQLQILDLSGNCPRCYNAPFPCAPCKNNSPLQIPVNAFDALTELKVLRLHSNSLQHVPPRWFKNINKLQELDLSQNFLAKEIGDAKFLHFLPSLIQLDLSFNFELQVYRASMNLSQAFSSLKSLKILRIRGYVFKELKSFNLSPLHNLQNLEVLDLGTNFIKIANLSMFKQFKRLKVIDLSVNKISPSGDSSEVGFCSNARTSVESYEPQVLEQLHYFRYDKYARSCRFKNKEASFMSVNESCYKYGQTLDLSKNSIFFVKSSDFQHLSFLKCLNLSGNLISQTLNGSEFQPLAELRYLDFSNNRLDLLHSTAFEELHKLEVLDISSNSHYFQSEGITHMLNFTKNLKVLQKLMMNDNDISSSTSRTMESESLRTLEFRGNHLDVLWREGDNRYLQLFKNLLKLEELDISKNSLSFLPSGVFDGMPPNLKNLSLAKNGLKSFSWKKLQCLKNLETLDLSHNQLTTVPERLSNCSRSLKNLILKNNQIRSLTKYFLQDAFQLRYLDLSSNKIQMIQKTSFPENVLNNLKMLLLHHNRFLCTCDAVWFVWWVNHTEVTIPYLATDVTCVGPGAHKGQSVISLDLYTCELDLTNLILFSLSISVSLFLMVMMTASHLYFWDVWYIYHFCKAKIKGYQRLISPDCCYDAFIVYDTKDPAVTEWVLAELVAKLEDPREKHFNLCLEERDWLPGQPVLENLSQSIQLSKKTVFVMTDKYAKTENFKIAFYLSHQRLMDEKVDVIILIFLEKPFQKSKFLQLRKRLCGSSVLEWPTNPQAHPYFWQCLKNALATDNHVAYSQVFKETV
Kind of assay: TLR7 inhibition reporter assay (HEK-Blue SEAP reporter, gardiquimod stimulation). The following applies: HEK-Blue cells overexpressing human TLR7, SEAP reporter, gardiquimod 7.5 μM, 22 hour incubation. In outline: (§1)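 HEK-Blue cells overexpressing human TLR7, TLR8 or TLR9 carry a SEAP reporter driven by NF-κB/AP-1 sites. Compounds (0.05 nM–50 μM) were preincubated 30 min at room temperature, then cells were stimulated with gardiquimod 7.5 μM (TLR7), R848 15.9 μM (TLR8) or ODN2006 5 nM (TLR9) for 22 h at 37 °C.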
In general terms: In a reporter assay the amount or activity of a reporter protein is the signal.

A further assay concerns the target T2, human TLR8 (Homo sapiens, UniProt Q9NR97).
T2 construct: host or cells: HEK-Blue cells
T2 sequence (Q9NR97 27-1041): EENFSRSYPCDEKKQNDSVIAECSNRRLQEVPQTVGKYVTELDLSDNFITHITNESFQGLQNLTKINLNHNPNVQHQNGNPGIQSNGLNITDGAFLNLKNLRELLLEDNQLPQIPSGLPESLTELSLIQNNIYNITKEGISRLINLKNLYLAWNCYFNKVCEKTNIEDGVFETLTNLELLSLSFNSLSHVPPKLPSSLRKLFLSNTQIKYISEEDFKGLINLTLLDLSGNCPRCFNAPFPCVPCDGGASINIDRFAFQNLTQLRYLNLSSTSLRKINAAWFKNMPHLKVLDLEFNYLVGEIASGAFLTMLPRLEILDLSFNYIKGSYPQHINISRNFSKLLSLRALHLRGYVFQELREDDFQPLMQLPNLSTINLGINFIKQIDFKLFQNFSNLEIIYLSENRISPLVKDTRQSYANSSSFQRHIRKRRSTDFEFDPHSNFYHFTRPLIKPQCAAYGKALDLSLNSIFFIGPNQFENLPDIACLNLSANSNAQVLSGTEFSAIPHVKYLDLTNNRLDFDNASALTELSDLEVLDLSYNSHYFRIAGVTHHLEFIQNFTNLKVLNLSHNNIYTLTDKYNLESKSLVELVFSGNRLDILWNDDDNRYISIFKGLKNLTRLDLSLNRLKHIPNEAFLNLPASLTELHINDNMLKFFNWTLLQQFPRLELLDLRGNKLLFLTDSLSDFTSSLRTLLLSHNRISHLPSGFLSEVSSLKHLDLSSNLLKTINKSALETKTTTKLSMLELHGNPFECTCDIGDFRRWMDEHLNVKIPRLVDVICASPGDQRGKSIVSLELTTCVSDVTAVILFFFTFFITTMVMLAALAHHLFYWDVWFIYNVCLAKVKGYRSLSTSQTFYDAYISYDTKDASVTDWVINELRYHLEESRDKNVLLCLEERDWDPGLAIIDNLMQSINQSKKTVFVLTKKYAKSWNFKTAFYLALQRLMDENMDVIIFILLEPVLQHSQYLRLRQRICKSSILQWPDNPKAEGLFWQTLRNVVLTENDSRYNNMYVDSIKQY
In words: TLR8 inhibition reporter assay (HEK-Blue SEAP reporter, R848 stimulation). The conditions noted are these: HEK-Blue cells overexpressing human TLR8, SEAP reporter, R848 15.9 μM, 22 hour incubation. In outline:
as §1

The target in the next assay is T3, human TLR9 (Homo sapiens, UniProt Q9NR96).
T3 construct: host or cells: HEK-Blue cells
T3 sequence (Q9NR96 26-1032): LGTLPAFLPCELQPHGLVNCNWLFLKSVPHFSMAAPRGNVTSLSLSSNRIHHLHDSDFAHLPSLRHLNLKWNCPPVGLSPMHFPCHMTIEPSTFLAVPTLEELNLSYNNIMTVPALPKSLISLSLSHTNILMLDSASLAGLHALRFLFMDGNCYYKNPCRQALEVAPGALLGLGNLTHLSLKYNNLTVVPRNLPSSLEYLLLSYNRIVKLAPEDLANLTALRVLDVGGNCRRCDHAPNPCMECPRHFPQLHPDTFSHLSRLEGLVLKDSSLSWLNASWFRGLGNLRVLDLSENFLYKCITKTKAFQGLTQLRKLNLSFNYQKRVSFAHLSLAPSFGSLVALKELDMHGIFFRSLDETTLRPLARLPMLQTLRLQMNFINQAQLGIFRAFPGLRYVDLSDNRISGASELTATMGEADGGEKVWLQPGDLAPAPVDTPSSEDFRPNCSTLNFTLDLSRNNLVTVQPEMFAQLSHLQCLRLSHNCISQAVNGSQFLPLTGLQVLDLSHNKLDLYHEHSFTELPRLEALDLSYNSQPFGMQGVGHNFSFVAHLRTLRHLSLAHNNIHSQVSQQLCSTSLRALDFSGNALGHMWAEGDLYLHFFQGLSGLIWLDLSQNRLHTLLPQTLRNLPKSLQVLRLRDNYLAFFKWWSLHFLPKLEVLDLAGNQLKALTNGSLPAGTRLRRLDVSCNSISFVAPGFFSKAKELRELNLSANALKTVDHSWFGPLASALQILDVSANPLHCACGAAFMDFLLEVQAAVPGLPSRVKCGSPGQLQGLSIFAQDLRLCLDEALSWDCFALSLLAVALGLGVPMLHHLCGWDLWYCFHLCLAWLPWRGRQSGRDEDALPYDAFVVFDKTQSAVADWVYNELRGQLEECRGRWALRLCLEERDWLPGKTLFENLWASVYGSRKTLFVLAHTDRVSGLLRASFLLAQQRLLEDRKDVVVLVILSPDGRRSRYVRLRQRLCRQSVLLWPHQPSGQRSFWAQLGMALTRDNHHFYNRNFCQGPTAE
In words: TLR9 inhibition reporter assay (HEK-Blue SEAP reporter, ODN2006 stimulation). The following applies: HEK-Blue cells overexpressing human TLR9, SEAP reporter, ODN2006 5 nM, 22 hour incubation. The essentials: as §1

In general, IC50 refers to the point on the concentration scale where inhibition reaches its midpoint. Low values mean greater potency in that assay, high ones weaker potency in that assay. For `Cc1cc(-c2[nH]c3ccc(C4CCN(CC(=O)N(C)C)CC4)cc3c2C(C)C)cn(Cc2ccccc2)c1=O` [Example 164, 2-(4-(2-(1-benzyl-5-methyl-6-oxo-1,6-dihydropyridin-3-yl)-3-isopropyl-1H-indol-5-yl)piperidin-1-yl)-N,N-dimethylacetamide], the IC50 at human TLR7 stood at 7 nM; against human TLR8, 42.4 nM; against human TLR9, 2560 nM.
On to `Cc1c(-c2[nH]c3ccc(C4CCN(C5COC5)CC4)cc3c2C(C)C)nn(C)c(=O)c1C` [Example 203, 6-(3-isopropyl-5-(1-(oxetan-3-yl)piperidin-4-yl)-1H-indol-2-yl)-2,4,5-trimethylpyridazin-3(2H)-one], for which the figures for the 50% inhibitory concentration (IC50) at human TLR7, against human TLR8 and against human TLR9 were 272 nM, 28.7 nM and 16900 nM, respectively.
Consider `CCCN1CCC(c2ccc3[nH]c(-c4cc(COC)c(=O)n(C)c4)c(C(C)C)c3c2)CC1` [Example 348, 5-(3-isopropyl-5-(1-propylpiperidin-4-yl)-1H-indol-2-yl)-3-(methoxymethyl)-1-methylpyridin-2(1H)-one], for which the 50% inhibitory concentration (IC50) against human TLR7 worked out at 7.1 nM; against human TLR8, 25.3 nM; against human TLR9 it was 10800 nM.
`Cc1c(-c2[nH]c3ccc(C4CCN(CC(=O)N(C)C)CC4)cc3c2C(C)C)cn(C)c(=O)c1C` [Example 134, 2-(4-(3-isopropyl-2-(1,4,5-trimethyl-6-oxo-1,6-dihydropyridin-3-yl)-1H-indol-5-yl)piperidin-1-yl)-N,N-dimethylacetamide]: the concentration for half-maximal inhibition (IC50) stood at 11.9 nM against human TLR7, 8.7 nM against human TLR8 and 3460 nM on human TLR9.
With `Cc1cc(-c2[nH]c3ccc(C4CCN(CCC(C)C)CC4)cc3c2C(C)C)cn(C)c1=O` [Example 86, 5-(5-(1-isopentylpiperidin-4-yl)-3-isopropyl-1H-indol-2-yl)-1,3-dimethylpyridin-2(1H)-one], the IC50 on human TLR7 came out at 2.1 nM; against human TLR8, 4.6 nM; against human TLR9, 2540 nM.
For `Cc1cc(-c2[nH]c3ccc(C4CCNCC4)cc3c2C(C)C)cn(CC(C)C)c1=O` [Example 36, 1-isobutyl-5-(3-isopropyl-5-(piperidin-4-yl)-1H-indol-2-yl)-3-methylpyridin-2(1H)-one], the IC50 against human TLR7 was determined as 9.6 nM; at human TLR8, 81.2 nM; against human TLR9, 1310 nM.
Turning to `Cc1cc(-c2[nH]c3ccc(C4CCN(C5CCC(C(C)(C)O)CC5)CC4)cc3c2C(C)C)cn(C)c1=O` (stereo not drawn) [Example 270, 5-(5-(1-(4-(2-hydroxypropan-2-yl)cyclohexyl)piperidin-4-yl)-3-isopropyl-1H-indol-2-yl)-1,3-dimethylpyridin-2(1H)-one], the half-maximal inhibitory concentration (IC50) at human TLR7 stood at 2.1 nM; against human TLR8 it was 4.7 nM; at human TLR9, 4160 nM.
With `Cc1nc(-c2[nH]c3ccc(C4CCN(C(=O)CN(C)C)CC4)cc3c2C(C)C)cn(C)c1=O` [Example 295, 5-(5-(1-(dimethylglycyl)piperidin-4-yl)-3-isopropyl-1H-indol-2-yl)-1,3-dimethylpyrazin-2(1H)-one], the half-maximal inhibitory concentration (IC50) at human TLR7 was 114 nM; against human TLR8 it was 61.9 nM; on human TLR9, 9690 nM.
As for `COCCn1cc(-c2[nH]c3ccc(C4CCN(C(=O)CN(C)C)CC4)cc3c2C(C)C)cc(C)c1=O` [Example 287, 5-(5-(1-(dimethylglycyl)piperidin-4-yl)-3-isopropyl-1H-indol-2-yl)-1-(2-methoxyethyl)-3-methylpyridin-2(1H)-one], the IC50 on human TLR7 was 7.8 nM; at human TLR8 it was 8.6 nM; against human TLR9, 18200 nM.
For `Cc1c(-c2[nH]c3ccc(C4CCN(CC(=O)N(C)C)CC4)cc3c2C(C)C)nn(C)c(=O)c1C` [Example 130, 2-(4-(3-isopropyl-2-(1,4,5-trimethyl-6-oxo-1,6-dihydropyridazin-3-yl)-1H-indol-5-yl)piperidin-1-yl)-N,N-dimethylacetamide], the IC50 on human TLR7 was found to be 290 nM; at human TLR8 it was 25.9 nM; on human TLR9 it was 8510 nM.
